Measurements from US20250221979A1, “NOVEL HETEROCYCLIC COMPOUND” (SHOUYAO HOLDINGS (BEIJING) CO., LTD., priority 2022, published 2025).

Biological target: human MAT2A enzyme (Homo sapiens (Human), UniProt P31153)
Assay: In vitro enzymatic inhibition activity assay on MAT2A (PiColorLock phosphate detection)
Assay type: biochemical
Conditions: purified human MAT2A 10 nM, ATP 50 μM, L-methionine 100 μM, 6 h at 23° C.; read-out: MAT2A inhibitory activity IC50
Experimental: Enzymatic activity assays of compounds of this patent against MAT2A (to detect half inhibitory concentration IC50 values of the compounds) were performed using the phosphate detection kit PiColorLockTM (ab270004, purchased from Abcam). This method utilized the principle that purified human MAT2A enzyme catalyzes the formation of S-adenosylmethionine (SAM) from L-methionine and ATP to release free phosphate, and used the spectrophotometric method to quantify phosphate, so as to determine the enzymatic activity of MAT2A. Compounds were diluted in a 10-fold gradient starting at 1 mM with 100% DMSO (for a total of 8 concentrations) and 2 μL of each concentration was added to 48 μL of reaction buffer (50 mM Tris-HCl PH 7.5, 50 mM KCl, 10 mM MgCl2, 0.01% Brij-35, 0.01% BSA, 1 mM DTT) and mixed well. The final diluted compound was prepared, and 5 μL of MAT2A enzyme (final concentration of 10 nM), 5 μL of ATP (final concentration of 50 μM), and 5 μL of L-methionine (final concentration of 100 μM) were added to each well of a 384-well plate (#3701, purchased from CORNING). After the 384-well plate was placed in the incubator at 23° C. for 6 h, 5 μL of PiColorLock reagent diluted Accelerator (dilution ratio 1:100) was added to each well, and the reaction was stopped by incubating in the incubator at 23° C. for 5 min. 2 μL of Stabiliser was added, the absorbance was read at 630 nm on BMG CLARIOstar, and the IC50 value of the compound was calculated by using GraphPad Prism software.
Under the conditions of this experiment, the inhibition of MAT2A by test compounds can be expressed as an IC50 value for the inhibition of the level of phosphate production during the enzymatic reaction.

Sequence of human MAT2A enzyme (P31153 whole entry): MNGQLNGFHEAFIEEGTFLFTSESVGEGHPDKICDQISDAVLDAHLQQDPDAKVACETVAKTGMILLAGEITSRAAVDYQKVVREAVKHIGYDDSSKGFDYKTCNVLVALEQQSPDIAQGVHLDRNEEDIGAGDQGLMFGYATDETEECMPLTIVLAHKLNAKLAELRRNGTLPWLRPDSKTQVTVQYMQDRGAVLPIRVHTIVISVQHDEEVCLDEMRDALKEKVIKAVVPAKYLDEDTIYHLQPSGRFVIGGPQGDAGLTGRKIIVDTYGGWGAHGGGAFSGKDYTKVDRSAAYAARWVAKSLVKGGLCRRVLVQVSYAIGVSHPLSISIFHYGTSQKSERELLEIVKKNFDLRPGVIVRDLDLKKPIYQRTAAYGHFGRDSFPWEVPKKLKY

| IC50 [nM] | Structure (SMILES) |
| --- | --- |
| 2.04 | COC(=O)c1c(N)c2ccc(Br)nc2n(-c2ccc(Cl)nc2)c1=O [Example 297, methyl 4-amino-7-bromo-1-(6-chloropyridin-3-yl)-2-oxo-1,2-dihydro-1,8-naphthyridine-3-carboxylate] |
| 2.59 | COC(=O)c1c(N)c2ccc(C3CC3)cc2n(-c2ccc(C(C)O)cc2)c1=O (stereo not drawn) [Example 328, methyl 4-amino-1-(4-(1-hydroxyethyl)phenyl)-2-oxo-7-cyclopropyl-1,2-dihydroquinoline-3-carboxylate] |
| 1.52 | [2H]C([2H])([2H])OC(=O)c1c(N)c2ccc(OC(F)(F)F)cc2n(-c2ccc([C@@H](C)O)cc2)c1=O [Example 393, methyl-d3 4-amino-1-(4-((1R)-1-hydroxyethyl)phenyl)-2-oxo-7-(trifluoromethoxy)-1,2-dihydroquinoline-3-carboxylate] |
| 0.74 | [2H]C([2H])([2H])OC(=O)c1c(N)c2ccc(C(F)(F)F)nc2n(-c2ccc(C(C)O)cc2)c1=O (stereo not drawn) [Example 310, methyl-d3 4-amino-1-(4-(1-hydroxyethyl)phenyl)-2-oxo-7-(trifluoromethyl)-1,2-dihydro-1,8-naphthyridine-3-carboxylate] |
| 1.27 | COC(=O)c1c(N)c2ccc(C3CC3)nc2n(-c2ccc(C(C)O)cc2)c1=O (stereo not drawn) [Example 360, methyl 4-amino-7-cyclopropyl-1-(4-(1-hydroxyethyl)phenyl)-2-oxo-1,2-dihydro-1,8-naphthyridine-3-carboxylate] |
| 1.52 | COC(=O)c1c(N)c2ccc(Br)cc2n(-c2ccc(Br)cc2)c1=O [Example 107, methyl 4-amino-7-bromo-1-(4-bromophenyl)-2-oxo-1,2-dihydroquinoline-3-carboxylate] |
| 6.1 | COC(=O)c1c(N)c2ccc(Br)cc2n(Cc2ccccc2)c1=O [Example 30, methyl 4-amino-1-benzyl-7-bromo-2-oxo-1,2-dihydroquinoline-3-carboxylate] |
| 2.34 | COC(=O)c1c(N)c2ccc(I)cc2n(-c2ccccc2C)c1=O [Example 19, methyl 4-amino-7-iodo-1-(2-methylphenyl)-2-oxo-1,2-dihydroquinoline-3-carboxylate] |
| 1.31 | COC(=O)c1c(N)c2ccc(Br)nc2n(-c2ccc(C)nc2)c1=O [Example 258, methyl 4-amino-7-bromo-1-(6-methylpyridin-3-yl)-2-oxo-1,2-dihydro-1,8-naphthyridine-3-carboxylate] |
| 4.18 | COC(=O)c1c(N)c2ccc(C(F)(F)F)cc2n(-c2cccc3[nH]ccc23)c1=O [Example 229, methyl 4-amino-1-(1H-indol-4-yl)-2-oxo-7-(trifluoromethyl)-1,2-dihydroquinoline-3-carboxylate] |
| 3.83 | COC(=O)c1c(N)c2ccc(C(F)(F)F)cc2n(-c2ccc(C(C)O)c(F)c2)c1=O (stereo not drawn) [Example 158, methyl 4-amino-1-(3-fluoro-4-(1-hydroxyethyl)phenyl)-2-oxo-7-(trifluoromethyl)-1,2-dihydroquinoline-3-carboxylate] |
| 1.64 | COC(=O)c1c(N)c2ccc(C(F)(F)F)cc2n(-c2ccc(N)cc2C)c1=O [Example 237, methyl 4-amino-1-(4-amino-2-methylphenyl)-2-oxo-7-(trifluoromethyl)-1,2-dihydroquinoline-3-carboxylate] |
| 0.43 | COC(=O)c1c(N)c2ccc(I)cc2n(-c2ccc(C(C)O)cc2)c1=O (stereo not drawn) [Example 298, methyl 4-amino-1-(4-(1-hydroxyethyl)phenyl)-2-oxo-7-iodo-1,2-dihydroquinoline-3-carboxylate] |
| 3.11 | COC(=O)c1c(N)c2ccc(I)cc2n(-c2cnc(Cl)cc2C)c1=O [Example 225, methyl 4-amino-1-(6-chloro-4-methylpyridin-3-yl)-7-iodo-2-oxo-1,2-dihydroquinoline-3-carboxylate] |
| 1.33 | COC(=O)c1c(N)c2ccc(C(F)(F)F)nc2n(-c2ccc([C@@H](C)O)cc2)c1=O [Example 348, methyl 4-amino-(1-(4-(1R)-1-hydroxyethyl)phenyl)-7-(trifluoromethyl)-2-oxo-pyrido[2,3-b]pyridin-3-carboxylate] |
| 1.04 | COC(=O)c1c(N)c2ccc(C(F)(F)F)cc2n(-c2ccc3ccccc3c2)c1=O [Example 26, methyl 4-amino-1-(naphthalen-2-yl)-2-oxo-7-(trifluoromethyl)-1,2-dihydro quinoline-3-carboxylate] |
| 7.39 | COC(=O)c1c(N)c2ccc(C(F)(F)F)cc2n(-c2ccccc2Br)c1=O [Example 93, methyl 4-amino-1-(2-bromophenyl)-2-oxo-7-(trifluoromethyl)-1,2-dihydroquinoline-3-carboxylate] |
| 4.03 | COC(=O)c1c(N)c2ccc(C(F)(F)F)cc2n(-c2ccc(OC)cc2C)c1=O [Example 80, methyl 4-amino-1-(4-methoxy-2-methylphenyl)-2-oxo-7-(trifluoromethyl)-1,2-dihydroquinoline-3-carboxylate] |
| 2.72 | COC(=O)c1c(N)c2ccc(Br)cc2n(-c2ccc(F)cc2)c1=O [Example 78, methyl 4-amino-7-bromo-1-(4-fluorophenyl)-2-oxo-1,2-dihydroquinoline-3-carboxylate] |
| 2.62 | Nc1c(C(=O)OC2CC2)c(=O)n(-c2ccccc2)c2cc(C(F)(F)F)ccc12 [Example 51, cyclopropyl 4-amino-2-oxo-1-phenyl-7-(trifluoromethyl)-1,2-dihydroquinolin-3-carboxylate] |
| 0.7 | COC(=O)c1c(N)c2ccc(C(F)(F)F)nc2n(-c2ccc3ccncc3c2)c1=O [Example 283, methyl 4-amino-1-(isoquinolin-7-yl)-2-oxo-7-(trifluoromethyl)-1,2-dihydro-1,8-naphthyridine-3-carboxylate] |
| 8.58 | Nc1c(C(=O)OC2CC2)c(=O)n(-c2ccccc2)c2cc(Cl)ccc12 [Example 49, cyclopropyl 4-amino-7-chloro-2-oxo-1-phenyl-1,2-dihydroquinolin-3-carboxylate] |
| 1.58 | COC(=O)c1c(N)c2ccc(C(F)(F)F)cc2n(-c2ccc(OC(F)F)cc2)c1=O [Example 63, methyl 4-amino-1-(4-(difluoromethoxy)phenyl)-2-oxo-7-(trifluoromethyl)-1,2-dihydroquinoline-3-carboxylate] |
| 0.92 | COC(=O)c1c(N)c2ccc(C(F)(F)F)cc2n(-c2ccc(N)cc2)c1=O [Example 273, methyl 4-amino-1-(4-aminophenyl)-2-oxo-7-(trifluoromethyl)-1,2-dihydroquinoline-3-carboxylate] |
| 2.83 | COC(=O)c1c(N)c2ccc(C(F)(F)F)cc2n(-c2ccc(OC)nc2)c1=O [Example 212, methyl 4-amino-1-(6-methoxypyridin-3-yl)-2-oxo-7-(trifluoromethyl)-1,2-dihydroquinoline-3-carboxylate] |
| 1.42 | COC(=O)c1c(N)c2ccc(Br)nc2n(-c2ccc(N)nc2)c1=O [Example 241, methyl 4-amino-1-(6-aminopyridin-3-yl)-7-bromo-2-oxo-1,2-dihydro-1,8-naphthyridine-3-carboxylate] |
| 2.28 | N#Cc1c(N)c2ccc(I)cc2n(-c2ccccc2)c1=O [Example 4, 4-amino-7-iodo-2-oxo-1-phenyl-1,2-dihydroquinolin-3-carbonitrile] |
